Source: patent US20210269848A1, “COMPOSITION OF MICROORGANISMS INDICATING DECONTAMINATION” (NOVOLYZE, priority 2018, published 2021)

Tests used:
A. pascens CNCM I-5181 [1] = assay: Log loss after heat treatment on nonfat dried milk NFDM; type: cell-based; conditions: 3% dye
Method: (§1) “Log loss” refers to the difference between initial viability and viability at a given time.
(§2) The test is performed for the following 3 strains: E. faecium ATCC 8459, P. agglomerans CNCM I-5055 and A. pascens CNCM I-5181.
(§3) Addition of 10% of pure lyophilisate of the strains to 5 g of maltodextrin. Vortexing for homogenization. […] Vortexing. Addition of 1% of the dyed strain mixture diluted 1/10 to 5 g NFDM. Vortexing. Deposition of 0.1 g in Eppendorf tubes then heat treatment of the tubes in a dry bath at 90 and 100° C. for 2, 5 and 10 minutes

[2] = test system: P. agglomerans CNCM I-5055; assay: as above; type: cell-based; conditions: 3% dye
Method: as §1, §2, §3

E. faecium ATCC 8459 [3] = assay: as above; type: cell-based; conditions: 3% dye
Method: as §1, §2, §3

Enterococcus faecium = assay: Heat resistance (log loss) of E. faecium compositions with brilliant blue FCF at 100° C.; type: cell-based; conditions: 3% dye
Method: as §1
Method: The Enterococcus faecium strain in dry form was mixed with an inert support (maltodextrin) and with each dye individually. The subsequent mixture is placed in an Eppendorf tube in a dry bath at a temperature of 100° C. Samples were taken at 2, 5 and 10 min and cell counts were performed on TSA (Trypticase Soy Agar) medium for 24 h at 37° C.
Must: addition of 3% of blue dye powder to 5 mL of fermentation must in a sterile jar. Vortexing for homogenization, distribution in tubes and heat treatment.
Pure: addition of 3% of dye to 5 g of pure lyophilisate in a sterile jar. Vortexing for homogenization, distribution in tubes and heat treatment.
Support: addition of 1% of pure lyophilisate to 5 g of maltodextrin in a sterile jar (1/100 dilution). Vortexing for homogenization, then addition of 3% of dye. Vortexing then distribution in tubes and heat treatment.

A. pascens CNCM I-5181 [4] = assay: Log loss after heat treatment on macadamia; type: cell-based; conditions: 3% dye
Method: as §1, §2
(§4) Addition of 10% pure lyophilisate of the strains to 5 g of maltodextrin. Vortexing for homogenization. Addition of 3% of dye. Vortexing. Addition of 1% of the dyed strain mixture diluted 1/10 to 5 g of macadamia. Mixing with a sterile spatula. Drying 2 h. Deposition of 0.3 g in Eppendorf tubes then heat treatment of the tubes in a dry bath at 90 and 100° C. for 0, 2, 5, 10 minutes

[5] = test system: P. agglomerans CNCM I-5055; assay: Log loss after heat treatment on macadamia; type: cell-based; conditions: 3% dye
Method: as §1, §2, §4

E. faecium ATCC 8459 [6] = assay: Log loss after heat treatment on macadamia; type: cell-based; conditions: 3% dye
Method: as §1, §2, §4

A. pascens CNCM I-5181 [7] = assay: Log loss after heat treatment on black pepper; type: cell-based; conditions: 3% dye
Method: as §1
(§5) The test is performed for the following 3 strains: E. faecium ATCC 8459, P. agglomerans CNCM I-5055 and A. pascens CNCM I-5181
(§6) Addition of 10% of pure lyophilisate of the strains to 5 g of maltodextrin. Vortexing for homogenization. […] Vortexing. Addition of 1% of the dyed strain mixture diluted 1/10 to 5 g of black pepper followed by a spray of wet fixing agent for good adhesion. Mixing with a sterile spatula. Drying 2 h. Deposition of 0.2 g in Eppendorf tubes then heat treatment of the tubes in a dry bath at 90 and 100° C. for 2, 5 and 10 minutes

[8] = test system: P. agglomerans CNCM I-5055; assay: Log loss after heat treatment on black pepper; type: cell-based; conditions: 3% dye
Method: as §1, §5, §6

E. faecium ATCC 8459 [9] = assay: Log loss after heat treatment on black pepper; type: cell-based; conditions: 3% dye
Method: as §1, §5, §6

Structure (SMILES): CCN(Cc1cccc(S(=O)(=O)O)c1)c1ccc(C(=C2C=CC(=[N+](CC)Cc3cccc(S(=O)(=O)O)c3)C=C2)c2ccccc2S(=O)(=O)[O-])cc1 [brilliant blue FCF]
- Log loss at 90° C. (A. pascens CNCM I-5181 [1]; 2 min): 0.06
- Log loss at 100° C. (A. pascens CNCM I-5181 [1]; 2 min): 0.26
- Log loss at 90° C. (A. pascens CNCM I-5181 [1]; 5 min): 0.46
- Log loss at 100° C. (A. pascens CNCM I-5181 [1]; 5 min): 0.35
- Log loss at 90° C. (A. pascens CNCM I-5181 [1]; 10 min): 0.62
- Log loss at 100° C. (A. pascens CNCM I-5181 [1]; 10 min): 1.82
- Log loss at 90° C. ([2]; 2 min): 0.07
- Log loss at 100° C. ([2]; 2 min): 0.13
- Log loss at 90° C. ([2]; 5 min): 0.07
- Log loss at 100° C. ([2]; 5 min): 0.67
- Log loss at 90° C. ([2]; 10 min): 0.37
- Log loss at 100° C. ([2]; 10 min): 0.72
- Log loss at 90° C. (E. faecium ATCC 8459 [3]; 2 min): 0.51
- Log loss at 100° C. (E. faecium ATCC 8459 [3]; 2 min): 0.36
- Log loss at 90° C. (E. faecium ATCC 8459 [3]; 5 min): 0.36
- Log loss at 100° C. (E. faecium ATCC 8459 [3]; 5 min): 0.59
- Log loss at 90° C. (E. faecium ATCC 8459 [3]; 10 min): 0.46
- Log loss at 100° C. (E. faecium ATCC 8459 [3]; 10 min): 1.29
- Log loss at 100° C. (Enterococcus faecium; Must (fermentation must), 2 min): 1.23
- Log loss at 100° C. (Enterococcus faecium; Must (fermentation must), 5 min): 1.44
- Log loss at 100° C. (Enterococcus faecium; Must (fermentation must), 10 min): 2.16
- Log loss at 100° C. (Enterococcus faecium; Pure (lyophilisate without support), 2 min): 0.02
- Log loss at 100° C. (Enterococcus faecium; Pure (lyophilisate without support), 5 min): 0.17
- Log loss at 100° C. (Enterococcus faecium; Pure (lyophilisate without support), 10 min): 0.50
- Log loss at 100° C. (Enterococcus faecium; Support (maltodextrin), 2 min): 0.13
- Log loss at 100° C. (Enterococcus faecium; Support (maltodextrin), 5 min): 0.94
- Log loss at 100° C. (Enterococcus faecium; Support (maltodextrin), 10 min): 1.97
- Log loss at 90° C. (A. pascens CNCM I-5181 [4]; 2 min): 0.25
- Log loss at 100° C. (A. pascens CNCM I-5181 [4]; 2 min): 0.05
- Log loss at 90° C. (A. pascens CNCM I-5181 [4]; 5 min): 0.18
- Log loss at 100° C. (A. pascens CNCM I-5181 [4]; 5 min): 0.12
- Log loss at 90° C. (A. pascens CNCM I-5181 [4]; 10 min): 0.38
- Log loss at 100° C. (A. pascens CNCM I-5181 [4]; 10 min): 0.6
- Log loss at 90° C. ([5]; 2 min): 0.3
- Log loss at 100° C. ([5]; 2 min): 0.14
- Log loss at 90° C. ([5]; 5 min): 0.6
- Log loss at 100° C. ([5]; 5 min): 0.15
- Log loss at 90° C. ([5]; 10 min): 0.14
- Log loss at 100° C. ([5]; 10 min): 1.36
- Log loss at 90° C. (E. faecium ATCC 8459 [6]; 2 min): 0.2
- Log loss at 100° C. (E. faecium ATCC 8459 [6]; 2 min): 0.24
- Log loss at 90° C. (E. faecium ATCC 8459 [6]; 5 min): 0.53
- Log loss at 100° C. (E. faecium ATCC 8459 [6]; 5 min): 0.47
- Log loss at 90° C. (E. faecium ATCC 8459 [6]; 10 min): 1.2
- Log loss at 100° C. (E. faecium ATCC 8459 [6]; 10 min): 1.24
- Log loss at 90° C. (A. pascens CNCM I-5181 [7]; 2 min): 0.59
- Log loss at 100° C. (A. pascens CNCM I-5181 [7]; 2 min): 0.27
- Log loss at 90° C. (A. pascens CNCM I-5181 [7]; 5 min): 0.76
- Log loss at 100° C. (A. pascens CNCM I-5181 [7]; 5 min): 0.64
- Log loss at 90° C. (A. pascens CNCM I-5181 [7]; 10 min): 0.85
- Log loss at 100° C. (A. pascens CNCM I-5181 [7]; 10 min): 0.85
- Log loss at 90° C. ([8]; 2 min): 1.12
- Log loss at 100° C. ([8]; 2 min): 1.26
- Log loss at 90° C. ([8]; 5 min): 1.6
- Log loss at 100° C. ([8]; 5 min): 1.45
- Log loss at 90° C. ([8]; 10 min): 1.77
- Log loss at 100° C. ([8]; 10 min): 2.14
- Log loss at 90° C. (E. faecium ATCC 8459 [9]; 2 min): 0.31
- Log loss at 100° C. (E. faecium ATCC 8459 [9]; 2 min): 1.35
- Log loss at 90° C. (E. faecium ATCC 8459 [9]; 5 min): 0.82
- Log loss at 100° C. (E. faecium ATCC 8459 [9]; 5 min): 1.37
- Log loss at 90° C. (E. faecium ATCC 8459 [9]; 10 min): 1.46
- Log loss at 100° C. (E. faecium ATCC 8459 [9]; 10 min): 2.19
- effect on viability of the indicator microorganisms (indicator microorganisms): does not affect the viability of the indicator microorganisms
